Target: T1, PI3Kα (class I catalytic subunit p110α) (Homo sapiens, UniProt P42336)
T1 construct: gene PIK3CA
Experiment: PI3K ADP-Glo kinase assay (Promega) on purified PI3Kα; also […] inhibition at […] in a recombinant kinase panel
Assay type: biochemical

T1 sequence (P42336 whole entry): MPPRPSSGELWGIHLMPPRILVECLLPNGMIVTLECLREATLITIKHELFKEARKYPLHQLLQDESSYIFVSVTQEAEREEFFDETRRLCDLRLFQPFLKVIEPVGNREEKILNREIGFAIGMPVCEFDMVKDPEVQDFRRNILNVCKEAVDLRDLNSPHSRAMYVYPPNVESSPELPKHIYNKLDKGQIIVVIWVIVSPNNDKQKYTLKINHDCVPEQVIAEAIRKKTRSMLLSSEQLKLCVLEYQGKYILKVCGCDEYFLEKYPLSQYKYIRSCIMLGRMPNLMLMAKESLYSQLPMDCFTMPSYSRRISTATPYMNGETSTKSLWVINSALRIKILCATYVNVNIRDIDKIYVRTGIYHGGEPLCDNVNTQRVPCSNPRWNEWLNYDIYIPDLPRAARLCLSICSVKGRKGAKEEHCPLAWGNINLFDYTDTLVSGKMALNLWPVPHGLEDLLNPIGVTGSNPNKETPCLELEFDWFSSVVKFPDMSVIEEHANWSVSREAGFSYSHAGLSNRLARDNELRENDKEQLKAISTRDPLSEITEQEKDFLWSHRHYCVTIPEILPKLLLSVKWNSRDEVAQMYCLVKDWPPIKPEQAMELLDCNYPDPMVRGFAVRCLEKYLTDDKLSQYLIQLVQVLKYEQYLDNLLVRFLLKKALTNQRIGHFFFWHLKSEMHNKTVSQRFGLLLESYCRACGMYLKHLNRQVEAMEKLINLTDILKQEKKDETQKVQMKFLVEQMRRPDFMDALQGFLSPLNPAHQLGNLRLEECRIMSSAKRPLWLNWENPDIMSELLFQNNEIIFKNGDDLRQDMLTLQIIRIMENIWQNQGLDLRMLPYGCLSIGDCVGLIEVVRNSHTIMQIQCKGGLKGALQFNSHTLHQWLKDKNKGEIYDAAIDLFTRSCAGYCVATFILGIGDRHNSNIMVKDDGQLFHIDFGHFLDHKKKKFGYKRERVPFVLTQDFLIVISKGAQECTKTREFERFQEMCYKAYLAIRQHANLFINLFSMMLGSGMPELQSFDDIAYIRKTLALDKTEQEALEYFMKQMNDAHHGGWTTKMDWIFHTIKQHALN
T1 sequence (P27986 2-724 partner): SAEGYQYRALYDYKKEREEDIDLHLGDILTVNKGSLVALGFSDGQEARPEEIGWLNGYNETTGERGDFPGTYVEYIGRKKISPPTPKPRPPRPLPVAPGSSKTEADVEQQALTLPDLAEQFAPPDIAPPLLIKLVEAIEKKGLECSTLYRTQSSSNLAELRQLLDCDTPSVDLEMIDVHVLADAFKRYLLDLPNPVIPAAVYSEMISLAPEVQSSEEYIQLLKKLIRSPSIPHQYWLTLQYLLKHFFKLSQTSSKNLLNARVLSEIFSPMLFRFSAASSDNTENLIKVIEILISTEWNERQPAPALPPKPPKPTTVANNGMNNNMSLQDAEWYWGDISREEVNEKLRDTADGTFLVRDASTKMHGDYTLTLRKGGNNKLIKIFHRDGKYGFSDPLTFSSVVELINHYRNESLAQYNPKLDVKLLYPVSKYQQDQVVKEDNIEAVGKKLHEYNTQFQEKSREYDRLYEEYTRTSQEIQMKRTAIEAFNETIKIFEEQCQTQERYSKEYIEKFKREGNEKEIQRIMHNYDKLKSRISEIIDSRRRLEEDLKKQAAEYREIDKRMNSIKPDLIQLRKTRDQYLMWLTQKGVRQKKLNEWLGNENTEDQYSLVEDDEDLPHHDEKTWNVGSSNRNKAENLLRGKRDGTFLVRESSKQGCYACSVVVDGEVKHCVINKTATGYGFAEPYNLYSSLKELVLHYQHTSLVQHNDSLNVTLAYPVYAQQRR

**Q.** Which IC50 does the source give for `O=C(/C=C/c1ccc(O)c(O)c1)c1ccc(O)cc1O` [butein] here?
**A.** 6.4 µM

Reference: PMC6115456, “PI3Ka-Akt1-mediated Prdm4 induction in adipose tissue increases energy expenditure, inhibits weight gain, and improves insulin resistance in diet-induced obese mice” (Cell Death & Disease, 2018)
